Active and inactive are the calls of the source.
Legend:
CHO = assay: cytotoxicity in TLR9-MyD88 CHO cells, dose response, cytotoxicity control for TLR9-MyD88 binding inhibitor project, cell-based, luminescence (AID 588339); type: functional, hamster; conditions: Cricetulus griseus;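 note: CHO cells stably coexpressing TLR9 and MyD88 fusions from primary screen; compound exposure lasted 48 hours before viability readout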
Beta Lactamase = Beta Lactamase (Pseudomonas aeruginosa, UniProt Q932Y6); assay: beta-lactamase reporter inhibitor potency, dose response, artefact control for TLR9-MyD88 binding inhibitor project, BLA reporter cells, FRET fluorescence (AID 588341); type: cell-based;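 note: cell based assay in CHO-K1 cells stably expressing beta-lactamase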
Sequence of Beta Lactamase (Q932Y6 whole entry): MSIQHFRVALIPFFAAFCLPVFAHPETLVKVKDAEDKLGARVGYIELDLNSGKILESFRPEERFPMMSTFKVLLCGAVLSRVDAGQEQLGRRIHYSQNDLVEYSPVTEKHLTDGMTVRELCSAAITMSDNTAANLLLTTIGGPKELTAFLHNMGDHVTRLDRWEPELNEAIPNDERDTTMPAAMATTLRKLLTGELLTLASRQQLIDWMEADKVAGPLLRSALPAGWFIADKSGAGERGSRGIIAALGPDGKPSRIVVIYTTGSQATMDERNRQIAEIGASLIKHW

[1] = target: T1, Corticotropin-releasing factor receptor 2/Corticotropin-releasing factor-binding protein (Homo sapiens, UniProt P24387+Q13324); assay: activators of CRF receptor 2 with binding protein – uHTS hits, confirmation (AID 602473); type: functional; conditions: read-out: EC50_Mean
T1 sequence (Q13324 whole entry): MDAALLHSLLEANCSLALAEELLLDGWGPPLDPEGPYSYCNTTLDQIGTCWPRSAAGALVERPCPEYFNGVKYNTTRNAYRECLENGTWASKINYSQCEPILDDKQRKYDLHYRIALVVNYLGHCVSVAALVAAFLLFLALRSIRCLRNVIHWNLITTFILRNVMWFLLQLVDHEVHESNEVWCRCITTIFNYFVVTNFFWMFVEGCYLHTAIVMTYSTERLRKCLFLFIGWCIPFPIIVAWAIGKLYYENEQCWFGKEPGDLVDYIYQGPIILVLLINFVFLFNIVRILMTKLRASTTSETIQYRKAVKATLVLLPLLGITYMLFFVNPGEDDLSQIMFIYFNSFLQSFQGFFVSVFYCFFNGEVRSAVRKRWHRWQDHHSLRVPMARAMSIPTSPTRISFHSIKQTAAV
T1 sequence (P24387 whole entry): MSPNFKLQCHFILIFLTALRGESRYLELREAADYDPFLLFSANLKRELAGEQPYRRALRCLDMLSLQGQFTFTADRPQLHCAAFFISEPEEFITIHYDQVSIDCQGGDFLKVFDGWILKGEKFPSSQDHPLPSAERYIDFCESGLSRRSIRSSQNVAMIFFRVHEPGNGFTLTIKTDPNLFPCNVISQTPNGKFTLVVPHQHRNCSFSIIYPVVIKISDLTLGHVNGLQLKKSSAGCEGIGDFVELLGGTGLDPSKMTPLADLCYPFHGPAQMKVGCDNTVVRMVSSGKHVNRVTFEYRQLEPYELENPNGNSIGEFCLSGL

[2] = target: UDP-galactopyranose mutase (Mycobacterium tuberculosis, UniProt P9WIQ1); assay: Inhibitors of Mycobacterium tuberculosis UDP-galactopyranose mutase (UGM) enzyme Measured in Biochemical System Using Plate Reader - 2105-02_Inhibitor_Dose_CherryPick_Activity. [Related pubchem assays (depositor defined):AID504439]
Sequence of UDP-galactopyranose mutase (P9WIQ1 whole entry): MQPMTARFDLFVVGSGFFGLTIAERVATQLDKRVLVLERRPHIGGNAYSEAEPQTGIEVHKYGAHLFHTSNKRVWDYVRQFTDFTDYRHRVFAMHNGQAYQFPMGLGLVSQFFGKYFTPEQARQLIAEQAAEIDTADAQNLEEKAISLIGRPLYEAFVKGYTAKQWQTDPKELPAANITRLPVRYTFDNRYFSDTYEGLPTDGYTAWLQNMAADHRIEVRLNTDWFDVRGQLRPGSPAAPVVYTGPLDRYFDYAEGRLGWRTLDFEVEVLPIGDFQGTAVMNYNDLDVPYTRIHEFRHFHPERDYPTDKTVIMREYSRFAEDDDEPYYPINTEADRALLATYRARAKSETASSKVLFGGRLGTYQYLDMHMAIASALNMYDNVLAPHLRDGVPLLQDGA

[3] = target: Low molecular weight phosphotyrosine protein phosphatase (Homo sapiens, UniProt P24666); type: functional; conditions: read-out: IC50_Mean;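 note: Dose-response confirmation assay measuring inhibition of LMPTP enzyme activity by fluorescence intensity read-out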
Sequence of Low molecular weight phosphotyrosine protein phosphatase (P24666 whole entry): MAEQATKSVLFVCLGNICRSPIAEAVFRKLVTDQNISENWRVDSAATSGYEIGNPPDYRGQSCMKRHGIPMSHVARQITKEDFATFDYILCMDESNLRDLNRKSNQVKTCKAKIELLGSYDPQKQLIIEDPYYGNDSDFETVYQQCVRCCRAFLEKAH

cells [4] = type: functional
cells [5] = type: functional, cell-based
[6] = Luminescence Cell-Based Dose Response HTS to Identify Activators of Luciferase Translation or Activity in H4 […] Cells. [Related pubchem assays: 1829 (Project Summary), 1814 (Primary HTS)]; type: functional
INS1 = assay: beta cell apoptosis inhibitors, cytokine rescue, dose response, luminescence, retest (AID 449756); type: functional, cell-based; conditions: Rattus norvegicus;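 note: cell death triggered by IL-1 beta plus TNF-alpha plus IFN-gamma mixture; protective hits raise ATP signal compared with cytokine alone wells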
[7] = target: DNA (cytosine-5)-methyltransferase 1 (Homo sapiens, UniProt P26358); assay: DNMT1 methyltransferase inhibitors, confirmation, biochemical, fluorescent molecular beacon (AID 602386); type: functional
Sequence of DNA (cytosine-5)-methyltransferase 1 (P26358 whole entry): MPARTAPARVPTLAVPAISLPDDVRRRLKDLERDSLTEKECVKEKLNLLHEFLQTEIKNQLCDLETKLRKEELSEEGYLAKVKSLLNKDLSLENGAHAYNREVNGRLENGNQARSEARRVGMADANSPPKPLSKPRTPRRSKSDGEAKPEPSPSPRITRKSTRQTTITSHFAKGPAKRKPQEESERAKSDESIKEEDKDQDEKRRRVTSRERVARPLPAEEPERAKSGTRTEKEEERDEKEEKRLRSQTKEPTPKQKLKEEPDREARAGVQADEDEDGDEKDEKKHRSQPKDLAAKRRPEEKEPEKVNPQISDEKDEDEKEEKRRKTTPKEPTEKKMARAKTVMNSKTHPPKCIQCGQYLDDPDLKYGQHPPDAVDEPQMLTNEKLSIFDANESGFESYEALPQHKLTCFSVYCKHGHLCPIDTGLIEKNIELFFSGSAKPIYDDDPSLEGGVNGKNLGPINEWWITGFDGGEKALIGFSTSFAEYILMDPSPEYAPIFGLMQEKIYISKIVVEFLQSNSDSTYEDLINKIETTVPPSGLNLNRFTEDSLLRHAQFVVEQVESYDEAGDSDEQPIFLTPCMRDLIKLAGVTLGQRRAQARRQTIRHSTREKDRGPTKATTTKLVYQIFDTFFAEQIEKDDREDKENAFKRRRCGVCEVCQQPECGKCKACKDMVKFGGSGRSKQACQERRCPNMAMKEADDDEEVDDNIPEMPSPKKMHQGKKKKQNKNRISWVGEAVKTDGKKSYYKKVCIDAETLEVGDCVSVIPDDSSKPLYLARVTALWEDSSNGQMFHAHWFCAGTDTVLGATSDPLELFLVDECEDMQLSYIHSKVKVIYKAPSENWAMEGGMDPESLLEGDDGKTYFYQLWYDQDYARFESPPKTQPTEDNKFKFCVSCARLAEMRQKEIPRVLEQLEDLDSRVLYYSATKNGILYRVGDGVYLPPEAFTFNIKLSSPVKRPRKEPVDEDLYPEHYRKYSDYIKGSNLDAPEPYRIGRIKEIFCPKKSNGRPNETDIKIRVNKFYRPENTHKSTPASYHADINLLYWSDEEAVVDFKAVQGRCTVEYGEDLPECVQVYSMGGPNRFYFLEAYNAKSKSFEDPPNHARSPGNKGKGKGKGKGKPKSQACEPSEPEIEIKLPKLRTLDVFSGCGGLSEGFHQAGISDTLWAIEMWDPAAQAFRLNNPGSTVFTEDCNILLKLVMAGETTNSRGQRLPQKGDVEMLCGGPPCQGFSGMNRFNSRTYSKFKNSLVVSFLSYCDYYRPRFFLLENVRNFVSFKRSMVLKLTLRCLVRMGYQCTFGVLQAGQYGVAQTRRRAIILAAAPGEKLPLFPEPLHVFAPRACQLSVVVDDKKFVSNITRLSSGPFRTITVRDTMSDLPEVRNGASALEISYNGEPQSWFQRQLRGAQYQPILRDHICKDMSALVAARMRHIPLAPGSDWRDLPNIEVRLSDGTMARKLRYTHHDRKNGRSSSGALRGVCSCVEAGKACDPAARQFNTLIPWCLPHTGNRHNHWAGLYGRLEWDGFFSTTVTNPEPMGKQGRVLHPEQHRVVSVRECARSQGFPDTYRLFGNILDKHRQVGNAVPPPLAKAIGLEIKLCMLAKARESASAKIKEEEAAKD

[8] = Counterscreen for activators of the function of SWI/SNF related, matrix associated, actin dependent regulator of chromatin, subfamily a, member 2 (SMARCA2, BRM): Luminescence-based cell-based high throughput dose response assay to identify non-selective compounds using the VP16 reporter assay.; type: functional
[9] = target: SWI/SNF-related matrix-associated actin-dependent regulator of chromatin subfamily A member 2 (Homo sapiens, UniProt P51531); assay: Luminescence-based cell-based high throughput dose response assay to identify activators of the function of SWI/SNF related, matrix associated, actin dependent regulator of chromatin, subfamily a, member 2 (SMARCA2, BRM).; type: functional
Sequence of SWI/SNF-related matrix-associated actin-dependent regulator of chromatin subfamily A member 2 (P51531 whole entry): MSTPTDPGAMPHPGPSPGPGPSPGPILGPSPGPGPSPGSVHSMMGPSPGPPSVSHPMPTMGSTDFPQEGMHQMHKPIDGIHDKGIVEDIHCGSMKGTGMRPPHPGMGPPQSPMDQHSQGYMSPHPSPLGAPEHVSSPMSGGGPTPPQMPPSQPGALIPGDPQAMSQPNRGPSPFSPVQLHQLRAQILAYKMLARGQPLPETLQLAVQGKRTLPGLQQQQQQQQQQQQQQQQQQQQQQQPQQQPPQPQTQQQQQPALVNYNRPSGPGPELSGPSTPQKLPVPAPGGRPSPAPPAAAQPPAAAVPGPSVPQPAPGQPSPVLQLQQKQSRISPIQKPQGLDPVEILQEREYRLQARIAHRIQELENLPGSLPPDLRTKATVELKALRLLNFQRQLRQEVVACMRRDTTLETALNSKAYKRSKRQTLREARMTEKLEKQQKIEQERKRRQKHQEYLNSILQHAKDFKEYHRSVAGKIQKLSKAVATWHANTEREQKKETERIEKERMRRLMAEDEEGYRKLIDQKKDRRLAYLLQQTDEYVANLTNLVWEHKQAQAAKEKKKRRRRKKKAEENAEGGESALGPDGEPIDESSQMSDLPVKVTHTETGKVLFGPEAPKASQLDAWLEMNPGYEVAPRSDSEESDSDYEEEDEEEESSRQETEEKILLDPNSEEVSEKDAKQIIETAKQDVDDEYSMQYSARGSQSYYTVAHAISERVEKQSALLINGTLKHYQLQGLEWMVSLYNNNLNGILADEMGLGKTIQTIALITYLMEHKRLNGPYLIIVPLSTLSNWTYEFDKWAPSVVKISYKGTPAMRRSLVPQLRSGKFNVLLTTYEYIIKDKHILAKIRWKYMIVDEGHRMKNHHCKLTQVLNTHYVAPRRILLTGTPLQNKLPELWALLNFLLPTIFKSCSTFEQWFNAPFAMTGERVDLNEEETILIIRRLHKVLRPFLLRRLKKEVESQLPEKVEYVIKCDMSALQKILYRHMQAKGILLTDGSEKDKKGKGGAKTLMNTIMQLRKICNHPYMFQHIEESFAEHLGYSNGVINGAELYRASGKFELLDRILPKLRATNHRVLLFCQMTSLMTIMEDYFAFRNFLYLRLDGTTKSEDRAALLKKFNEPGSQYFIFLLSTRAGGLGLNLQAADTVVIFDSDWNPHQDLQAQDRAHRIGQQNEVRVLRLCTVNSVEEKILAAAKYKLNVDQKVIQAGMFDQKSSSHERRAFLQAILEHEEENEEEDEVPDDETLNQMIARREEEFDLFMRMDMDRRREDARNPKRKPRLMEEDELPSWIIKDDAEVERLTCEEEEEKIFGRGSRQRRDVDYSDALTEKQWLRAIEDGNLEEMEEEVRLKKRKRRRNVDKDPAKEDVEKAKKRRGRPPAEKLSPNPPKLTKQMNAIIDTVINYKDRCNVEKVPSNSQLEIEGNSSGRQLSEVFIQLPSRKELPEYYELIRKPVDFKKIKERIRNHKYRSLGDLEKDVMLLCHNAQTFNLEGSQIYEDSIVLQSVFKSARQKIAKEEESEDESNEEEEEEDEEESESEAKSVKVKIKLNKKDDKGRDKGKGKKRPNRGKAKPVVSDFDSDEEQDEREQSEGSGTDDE

[10] = cytotoxicity toward NIH3T3 fibroblasts, dose response, counter-screen, cell-based, ATP luminescence, mouse fibroblasts (AID 2010); type: functional;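 note: cells exposed to compound for about 90 hours before reading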
H4 = assay: Luminescence Cell-Based Dose Response HTS to Identify Activators of 5'UTR Stem-Loop Driven Prion Protein mRNA Translation in H4 Neuroglioblastoma Cells. [Related pubchem assays: 1829 (Project Summary), 1814 (Primary HTS)]; type: functional; conditions: Homo sapiens
[11] = target: T2, Short transient receptor potential channel 4 (Mus musculus, UniProt Q9QUQ5); assay: mouse TRPC4 channel inhibitors, dose response, cell-based, HEK293 TRPC4/mu-opioid, Fluo-4 calcium (AID 434942); type: functional;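 note: potency of inhibitors blocking the TRPC4 calcium response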
T2 sequence (Q9QUQ5 whole entry): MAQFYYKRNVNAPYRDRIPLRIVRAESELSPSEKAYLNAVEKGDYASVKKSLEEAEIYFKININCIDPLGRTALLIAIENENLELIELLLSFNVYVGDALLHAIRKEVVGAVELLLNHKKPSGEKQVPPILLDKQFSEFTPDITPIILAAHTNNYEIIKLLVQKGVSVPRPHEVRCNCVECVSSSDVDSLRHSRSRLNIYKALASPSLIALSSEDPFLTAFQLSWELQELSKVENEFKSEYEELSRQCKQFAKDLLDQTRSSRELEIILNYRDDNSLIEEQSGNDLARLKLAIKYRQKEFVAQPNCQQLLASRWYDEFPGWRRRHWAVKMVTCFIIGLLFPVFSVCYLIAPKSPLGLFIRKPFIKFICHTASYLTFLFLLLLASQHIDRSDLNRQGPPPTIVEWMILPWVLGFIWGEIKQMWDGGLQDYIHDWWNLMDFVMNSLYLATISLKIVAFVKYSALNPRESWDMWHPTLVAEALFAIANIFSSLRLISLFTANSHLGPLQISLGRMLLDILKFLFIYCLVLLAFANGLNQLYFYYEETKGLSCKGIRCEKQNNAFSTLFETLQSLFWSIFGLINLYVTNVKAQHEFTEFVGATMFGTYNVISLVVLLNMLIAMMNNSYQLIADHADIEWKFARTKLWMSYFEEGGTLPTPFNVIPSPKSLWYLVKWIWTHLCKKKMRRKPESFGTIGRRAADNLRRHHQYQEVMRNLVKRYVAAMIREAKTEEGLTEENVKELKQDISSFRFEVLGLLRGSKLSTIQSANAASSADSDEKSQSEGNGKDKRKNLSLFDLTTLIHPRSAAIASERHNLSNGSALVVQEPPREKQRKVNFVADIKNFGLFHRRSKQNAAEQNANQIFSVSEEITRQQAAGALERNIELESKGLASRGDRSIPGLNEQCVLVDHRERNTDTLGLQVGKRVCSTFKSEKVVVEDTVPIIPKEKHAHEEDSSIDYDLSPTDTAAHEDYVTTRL

cells [12] = type: functional, cell-based; remark: listed apart in the source
[13] = Luminescence Cell-Based Dose Confirmation HTS to Identify Activators of 5'UTR Stem-Loop Driven Alpha-Synuclein mRNA Translation in H4 Neuroglioblastoma Cells. [Related pubchem assays: 1829 (Project Summary), 1814 (Primary HTS)]; type: functional
[14] = inhibitors of intracellular T. cruzi replication, confirmation, NIH3T3 host cells, beta-gal luminescence (AID 2044); type: functional, cell-based;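 note: intracellular parasites grown in NIH/3T3 mouse fibroblasts as host cells; luminescent beta-galactosidase reporter signal from transgenic T. cruzi replicating inside host cells; inhibitors lower the luminescence signal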
HEK293 [15] = assay: optical interference in Abeta FP readout, dose response, artefact control for IDE activator project, biochemical, fluorescence polarization (AID 588442); type: functional, cell-based; conditions: Homo sapiens
Insulin-degrading enzyme [16] = target: T3, Insulin-degrading enzyme (Homo sapiens, UniProt P14735); assay: activators of endogenous IDE in HEK cells, dose response, cell-based, fluorescence polarization (AID 588439); type: functional
T3 sequence (P14735 whole entry): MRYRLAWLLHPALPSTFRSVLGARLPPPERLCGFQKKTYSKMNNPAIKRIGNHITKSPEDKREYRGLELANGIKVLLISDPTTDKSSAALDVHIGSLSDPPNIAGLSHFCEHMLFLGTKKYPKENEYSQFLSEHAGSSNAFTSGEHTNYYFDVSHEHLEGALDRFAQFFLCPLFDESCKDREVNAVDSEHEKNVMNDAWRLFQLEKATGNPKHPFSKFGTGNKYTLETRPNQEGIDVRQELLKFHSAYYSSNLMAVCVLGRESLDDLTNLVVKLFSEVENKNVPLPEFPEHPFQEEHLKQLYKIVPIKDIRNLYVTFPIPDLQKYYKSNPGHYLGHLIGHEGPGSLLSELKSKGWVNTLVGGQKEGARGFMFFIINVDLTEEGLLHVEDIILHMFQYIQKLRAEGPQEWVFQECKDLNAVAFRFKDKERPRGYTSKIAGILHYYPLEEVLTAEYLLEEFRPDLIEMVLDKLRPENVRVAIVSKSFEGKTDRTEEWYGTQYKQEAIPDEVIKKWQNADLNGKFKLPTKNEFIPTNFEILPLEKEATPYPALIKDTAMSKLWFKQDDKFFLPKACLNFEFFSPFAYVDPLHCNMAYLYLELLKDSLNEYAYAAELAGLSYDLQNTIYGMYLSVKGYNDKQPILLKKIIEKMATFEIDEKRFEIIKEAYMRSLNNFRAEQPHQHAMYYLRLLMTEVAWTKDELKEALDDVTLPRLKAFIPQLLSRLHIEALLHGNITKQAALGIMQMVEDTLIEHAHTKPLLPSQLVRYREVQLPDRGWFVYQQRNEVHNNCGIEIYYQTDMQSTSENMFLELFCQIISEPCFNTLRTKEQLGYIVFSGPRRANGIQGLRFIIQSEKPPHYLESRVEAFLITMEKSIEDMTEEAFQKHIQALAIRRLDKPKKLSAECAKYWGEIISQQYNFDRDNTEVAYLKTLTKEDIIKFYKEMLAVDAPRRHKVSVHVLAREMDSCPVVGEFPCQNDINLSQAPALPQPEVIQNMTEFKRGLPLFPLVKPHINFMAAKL

HEK293 [17] = assay: HEK cell cytotoxicity by LDH release, dose response, cytotoxicity control for IDE activator project, fluorescence, HEK cells (AID 588440); type: functional, cell-based; conditions: Homo sapiens;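 note: cytotoxicity by LDH release measuring loss of membrane integrity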
Insulin-degrading enzyme [18] = target: T3, Insulin-degrading enzyme; assay: activators of recombinant IDE enzyme, dose response, counter-screen for IDE activator project, biochemical, fluorescence polarization (AID 588681)
[19] = system: Streptococcus sp. 'group A'; assay: growth inhibition of control SK(-) GAS strain, dose response, counter-screen for streptokinase expression inhibitor project, luminescence, kanamycin, BacTiterGlo, confirmation (AID 1900); type: functional, organism-based
[20] = THP-1 cell cytotoxicity, dose response, cytotoxicity control for non-replicating M. tuberculosis project (AID 489025); type: functional
Streptococcus = assay: Group A Streptococcus viability loss, dose response, counter-screen for streptokinase expression inhibitor project, luminescence, BacTiterGlo (AID 1915); type: functional, organism-based;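 note: potency for reduction of bacterial viability or growth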
H9c2 = assay: cells; type: functional, cell-based; conditions: Rattus norvegicus, H9c2, Myocardium;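 note: confirmatory concentration-response retest of ultra-high-throughput screening hits for modulation of myocardial damage; cell death induced by hydrogen peroxide oxidative stress; compound pretreatment for 60 min then peroxide exposure for 2 h; potency is for protecting the cells against peroxide damage rather than for killing them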
[21] = target: T4, Heat shock factor protein 1 (Mus musculus, UniProt P38532); assay: inhibition of MG132-induced HSE-luciferase signal, confirmation, cell-based, NIH3T3, luminescence, dose retest (AID 2382); type: functional;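 note: NIH3T3 fibroblasts with HSF1-driven luciferase reporter stressed by proteasome inhibitor MG132; luminescence from HSF1-driven luciferase expression after 8 hours of MG132 stress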
T4 sequence (P38532 whole entry): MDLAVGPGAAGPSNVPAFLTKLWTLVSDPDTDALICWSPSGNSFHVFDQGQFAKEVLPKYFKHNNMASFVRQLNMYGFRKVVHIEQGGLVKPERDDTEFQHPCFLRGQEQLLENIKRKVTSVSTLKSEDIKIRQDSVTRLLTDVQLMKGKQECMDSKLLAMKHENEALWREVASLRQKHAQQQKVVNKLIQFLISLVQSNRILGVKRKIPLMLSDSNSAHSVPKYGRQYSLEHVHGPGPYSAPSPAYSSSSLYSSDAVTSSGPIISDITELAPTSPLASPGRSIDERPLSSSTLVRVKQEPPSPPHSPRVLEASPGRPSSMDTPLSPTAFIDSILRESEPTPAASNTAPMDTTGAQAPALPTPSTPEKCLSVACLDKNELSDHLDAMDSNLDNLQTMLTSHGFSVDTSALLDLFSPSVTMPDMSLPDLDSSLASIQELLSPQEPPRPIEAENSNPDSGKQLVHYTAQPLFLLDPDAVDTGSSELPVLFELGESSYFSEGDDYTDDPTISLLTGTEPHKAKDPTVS

In the case of `Nc1ccc2c(C(F)(F)F)cc(=O)oc2c1`, the IC50 (CHO) is reported as > 49.7 µM (inactive) and the IC50 (Beta Lactamase) is reported as 4.77 µM (active).
With `O=C(NC1CCCCC1)c1cccc2c1C(=O)c1ccc(N3CCC(Cc4ccccc4)CC3)cc1S2(=O)=O` the IC50 (CHO) was > 49.7 µM (inactive), the EC50 [1] was 6.47 µM (active) and the IC50 (Beta Lactamase) was 3.87 µM (active). The AC50 [2] was 72.3 µM (active).
For `CCn1cc(C(=O)O)c(=O)c2cc(F)c(N3CCN(C(=S)NC(=O)c4ccccc4)CC3)cc21`, the IC50 [3] was 15.4 µM (active) and the IC50 (cells [4]) was 42.6 µM (active).
With `CCN(CC)CCn1c2ccccc2c2cnc(N)c(C#N)c21` the EC50 (cells [5]) was > 350 µM (not active), the EC50 [6] was 21 µM (active) and the AC50 (INS1) was 3.09 µM (active). For the same compound, the IC50 [7] was > 99 µM (inactive), the EC50 [8] was > 91.2 µM (inactive) and the EC50 [9] was > 3.38 µM (active). For the same compound, the EC50 [10] was 9.47 µM (active), the EC50 (H4) was > 120 µM (not active) and the EC50 [11] was 4.73 µM (active). The EC50 (cells [12]) was > 350 µM (not active), the EC50 [13] was 10.2 µM (active) and the EC50 [14] was 1.21 µM (active).
For `COCO/C=C(\NC(C)=O)c1ccccc1`, the EC50 (HEK293 [15]) was > 56 µM (inactive), the EC50 (Insulin-degrading enzyme [16]) was > 54.7 µM (inactive) and the IC50 (HEK293 [17]) was > 89.3 µM (inactive). For the same compound, the EC50 (Insulin-degrading enzyme [18]) was > 54.7 µM (inactive).
In the case of `O=c1c(O)c(-c2cccs2)oc2ccc(Cl)cc12`, the EC50 (HEK293 [15]) is reported as > 54.7 µM (inactive), the EC50 (Insulin-degrading enzyme [16]) is reported as > 54.7 µM (inactive) and the IC50 (HEK293 [17]) is reported as > 89.2 µM (inactive). The EC50 [19] was 2.11 µM (active), the CC50 [20] was > 40 µM (active) and the IC50 (cells [4]) was 13.8 µM (active). The EC50 (Insulin-degrading enzyme [18]) was > 54.7 µM (inactive), the EC50 (Streptococcus) was 7.38 µM (active) and the IC50 (H9c2) was > 79 µM (inactive).
In the case of `COc1ccc(/C=C(\C#N)C(=O)Nc2cc(C)c(Cl)cc2OC)cc1O`, the EC50 (HEK293 [15]) is reported as > 55.9 µM (inactive), the EC50 (Insulin-degrading enzyme [16]) is reported as > 54.7 µM (inactive) and the EC50 [21] is reported as > 195 µM (not active). The IC50 (HEK293 [17]) was 12.6 µM (inactive) and the EC50 (Insulin-degrading enzyme [18]) was > 54.7 µM (inactive).
